The values below come from patent US11000512B2, “Use of DDX3 inhibitors as antiproliferative agents” (AZIENDA OSPEDALIERA UNIVERSITARIA SENESE, priority 2016, dated 2021).

Data set [1] deals with Human breast adenocarcinoma cell line (MDA-MB-231). Briefly: Cytotoxicity test / growth inhibition, MDA-MB-231. Format: cell-based. The settings on record: MDA-MB-231, 48 hours, cell counting. On the procedure:
(§1) Cells were purchased from American Type Culture Collection (ATCC, Manassas, Va., USA). The LNCaP (ATCC® CRL-1740™), A549 (ATCC® CCL-185™), MDA-MB-231 (ATCC® CRM-HTB-26™), 22Rv1 (ATCC® CRL-2505™), HCT-116 (ATCC® CCL-247™) and PC3 (ATCC® CRL-1435™) cells were maintained in Roswell Park Memorial Institute 1640 medium (RPMI; Euroclone, ECB9006L) supplemented with 10% fetal bovine serum (Euroclone; ECS0180L), 2 mM L-glutamine, 100 units/mL penicillin and […] streptomycin at 37° C. in an atmosphere of 5% CO2/air. DU145 (ATCC® HTB-81™), and DAOY (ATCC® HTB-186™) cells were maintained in Eagle's minimal essential medium (EMEM; Euro-clone, ECM0445L) supplemented with 10% fetal bovine serum (Euroclone; ECS0180L), 2 mM L-glutamine, 100 units/ml penicillin and […] streptomycin at 37° C. in an atmosphere of 5% CO2/air. SH-SY5Y (ATCC® CRL-2266™), DBRTG (ATCC® CRL-2020™), HeLa (ATCC® CCL-2™), HN6 cells (kindly provided by Dr Silvio Gutkind, UCSD Medical Center, Moores Cancer Center USA, Chen J. J et al, Oncotarget 2013, 4, 206-217)), U2OS (ATCC® HTB-96™), RD18 cells (kindly provided by Dr P. Boccuni Memorial Sloan-Kettering Cancer Center, New York, USA Vella S. et al. Clin Epigenetics. 2015 6; 7-82), cells were maintained in Dulbecco's modified Eagle's medium (DMEM; Euroclone, ECB7501L) supplemented with 10% fetal bovine serum (Euroclone; ECS0180L), 2 mM L-glutamine, 100 units/ml penicillin and 100 mg/mL streptomycin at 37° C. in an atmosphere of 5% CO2/air.
(§2) Cell lines were seeded at appropriate densities in 2 mL growth medium in 6-wells culture plates 24 hours before the treatment with the inhibitor compounds. After 24 h the culture medium was removed and fresh medium containing increasing concentrations of chemical compounds was added to cells. The fixed final concentrations were: 0.1 μM, 1 μM, 10 μM, 100 μM. DMSO was the vehicle used for dilution of the compounds and its final concentration on cells was less than 0.2%. Medium-only containing wells were included as controls. Cells were incubated 48 hours with drugs and, then, cell viability was evaluated.
(§3) Cells were detached from each well of the 6-wells plates with 300 μL of Trypsin and suspended in culture medium to a final volume of 1 mL. Cell viability was then assessed through cell counting. Cells were diluted in 1:50 ratio of an isotonic buffered diluent, Isoton (Backman Coulter), following the manufacturer's instructions, and counted using an automated cell counter (Z2 series Coulter Counter, Beckman Coulter). Each cell count was performed in three replicates. The values corresponding to the relative survival of cells in presence of each chemical compound at single concentrations were normalized to the untreated controls. Then, the half maximal inhibitory concentration (IC50) value, which represent the drug concentration that is required to induce a 50% growth inhibition in vitro, was calculated with GraphPad Prism 6.0 software using the best fitting sigmoid curve.

Data set [2] relates to Human Glioblastoma cell line (U87). Briefly: Cytotoxicity test / growth inhibition, U87. The format is cell-based. The conditions noted are these: U87, 48 hours, cell counting, mM. On the procedure:
as §2
as §3, with “Then, the half maximal inhibitory concentration (IC50) value, which represent the drug concentration that is required to induce a 50% growth inhibition in vitro, was calculated with GraphPad Prism 6.0 software using the best fitting sigmoid curve.” left out

Data set [3] has as its system Human cervical carcinoma cell line (HeLa). Briefly: Cytotoxicity test / growth inhibition, HeLa. The format is cell-based. The settings on record: 48 hours, cell counting, mM. As for the experimental part: as §1, with “2015 6; 7-82), cells were maintained in Dulbecco's modified Eagle's medium (DMEM; Euroclone, ECB7501L) supplemented with 10% fetal bovine serum (Euroclone; ECS0180L), 2 mM L-glutamine, 100 units/ml penicillin and 100 mg/mL streptomycin at 37° C. in an atmosphere of 5% CO2/air.” left out
(§4) Cell lines were seeded at appropriate densities in 2 mL growth medium in 6-wells culture plates 24 hours before the treatment with the inhibitor compounds. […] Cells were incubated 48 hours with drugs and, then, cell viability was evaluated.
(§5) Cells were detached from each well of the 6-wells plates with 300 μL of Trypsin and suspended in culture medium to a final volume of 1 mL. Cell viability was then assessed through cell counting. Cells were diluted in 1:50 ratio of an isotonic buffered diluent, Isoton (Backman Coulter), following the manufacturer's instructions, and counted using an automated cell counter (Z2 series Coulter Counter, Beckman Coulter). […]

The subject of data set [4] is Human Neuroblastoma cell line (SH-SY5Y). Briefly: Cytotoxicity test / growth inhibition, SH-SY5Y. Format: cell-based. The conditions noted are these: 48 hours, cell counting. On the procedure:
Cells were purchased from American Type Culture Collection (ATCC, Manassas, Va., USA). The LNCaP (ATCC® CRL-1740™), A549 (ATCC® CCL-185™), MDA-MB-231 (ATCC® CRM-HTB-26™), 22Rv1 (ATCC® CRL-2505™), HCT-116 (ATCC® CCL-247™) and PC3 (ATCC® CRL-1435™) cells were maintained in Roswell Park Memorial Institute 1640 medium (RPMI; Euroclone, ECB9006L) supplemented with 10% fetal bovine serum (Euroclone; ECS0180L), 2 mM L-glutamine, 100 units/mL penicillin and […] streptomycin at 37° C. in an atmosphere of 5% CO2/air. […]
as §4, §5

Data set [5] in a line: Microsomal Stability Assay (HLM). Format: in vitro ADME. The settings on record: human liver microsomes, 37° C., 60 min, NADPH-generating system; percentage of not metabolized compound. The text has this:
(§6) For the quantification was used an LC-MS system consisted of a Varian apparatus (Varian Inc) including a vacuum solvent degassing unit, two pumps (212-LC), a Triple Quadrupole MSD (Mod. 320-LC) mass spectrometer with ES interface and Varian MS Workstation System Control Vers. 6.9 software. Chromatographic separation was obtained using a Pursuit C18 column (50×2.0 mm) (Varian) with 3 μm particle size and gradient elution: eluent A being ACN and eluent B consisting of water. […] The flow rate was 0.2 mL min^−1 and injection volume was 5 μL. The instrument operated in positive mode and parameters were: detector 1850 V, drying gas pressure 25.0 psi, desolvation temperature 300.0° C., nebulizing gas 40.0 psi, needle 5000 V and shield 600 V. Nitrogen was used as nebulizer gas and drying gas. Collision induced dissociation was performed using Argon as the collision gas at a pressure of 1.8 mTorr in the collision cell. Microsomal Stability Assay. […] The reaction was stopped by cooling on ice and adding 1.0 mL of acetonitrile. The reaction mixtures were then centrifuged, and the parent drug and metabolites were subsequently determined by LC-UV-MS. Chromatographic analysis was performed with an Agilent 1100 LC/MSD VL system (G1946C) (Agilent Technologies, Palo Alto, Calif.) constituted by a vacuum solvent degassing unit, a binary high-pressure gradient pump, an 1100 series UV detector, and an 1100 MSD model VL benchtop mass spectrometer.
Chromatographic separation was obtained using a Varian Polaris C18-A column (150-4.6 mm, 5 μm particle size) and gradient elution: eluent A being ACN and eluent B consisting of water. […] The flow rate was 0.8 mL min^−1 and injection volume was 20 μL.
The Agilent 1100 series mass spectra detection (MSD) single-quadrupole instrument was equipped with the orthogonal spray API-ES (Agilent Technologies, Palo Alto, Calif.). Nitrogen was used as nebulizing and drying gas. The pressure of the nebulizing gas, the flow of the drying gas, the capillary voltage, the fragmentor voltage, and the vaporization temperature were set at 40 psi, 9 L/min, 3000 V, 70 V, and 350° C., respectively. UV detection was monitored at 280 nm. The LC-ESI-MS determination was performed by operating the MSD in the positive ion mode. Spectra were acquired over the scan range m/z 100-1500 using a step size of 0.1 u. The percentage of not metabolized compound was calculated by comparison with reference solutions.
(Microsomes from liver hold many membrane-bound enzymes, among them those of drug oxidation.)

Data set [6] can be described thus: Parallel Artificial Membrane Permeability Assay (PAMPA), GI. The format is in vitro ADME. The conditions noted are these: GI (intestinal) PAMPA, value in brackets. As for the experimental part:
Parallel Artificial Membrane Permeability Assay (PAMPA). Donor solution (0.5 mM) was prepared by diluting 1 mM dimethylsulfoxide (DMSO) compound stock solution using phosphate buffer (pH 7.4, 0.025 M). Filters were coated with 5 μL of a 1% (w/v) dodecane solution of phosphatidylcholine prepared from CHCl3 solution 10% w/v, for intestinal permeability. Donor solution (150 μL) was added to each well of the filter plate. To each well of the acceptor plate were added 300 μL of solution (50% DMSO in phosphate buffer). All compounds were tested in three different plates on different days. The sandwich was incubated for 5 h at room temperature under gentle shaking. After the incubation time, the plates were separated, and samples were taken from both receiver and donor sides and analyzed using LC with UV detection at 280 nm.
LC analysis were performed with a Varian Prostar HPLC system (Varian Analytical Instruments, USA) equipped with a binary pump with a manual injection valve and model Prostar 325 UV-VIS Detector. Chromatographic separations were conducted using a Polaris C18-A column (150-4.6 mm, 5 μm particle size) at a flow rate of 0.8 mL min^−1 with a mobile phase composed of 60% ACN/40% H2O.
Permeability (Papp) for PAMPA was calculated according to the following equation, obtained from Wohnsland and Faller and Sugano et al. equation with some modification in order to obtain permeability values in cm s^−1,
where VA is the volume in the acceptor well, VD is the volume in the donor well (cm^3), A is the “effective area” of the membrane (cm^2), t is the incubation time (s) and r the ratio between drug concentration in the acceptor and equilibrium concentration of the drug in the total volume (VD+VA). Drug concentration is estimated by using the peak area integration.
Membrane retentions (%) were calculated according to the following equation: […]
where r is the ratio between drug concentration in the acceptor and equilibrium concentration, D, A, and Eq represented drug concentration in the donor, acceptor and equilibrium solution, respectively.
(In general: The PAMPA barrier holds no transporters, so it reflects passive diffusion.)

Another data set can be described thus: Water Solubility Assay. Format: physicochemical. As for the experimental part:
Water Solubility Assay. Each solid compound (1 mg) was added to 1 mL of water. The samples were shaked in a shaker bath at room temperature for 24-36 h. The suspensions were filtered through a 0.45 μm nylon filter (Acrodisc), and the solubilized compound determined by LC-MS-MS assay. For each compound the determination was performed in triplicate.
as §6

In data set [7] the test system is Human Prostate cancer cell line (PC3). Briefly: Cytotoxicity test / growth inhibition, PC3. Format: cell-based. The settings on record: PC3, 48 hours, cell counting. On the procedure: as §1, with “2015 6; 7-82), cells were maintained in Dulbecco's modified Eagle's medium (DMEM; Euroclone, ECB7501L) supplemented with 10% fetal bovine serum (Euroclone; ECS0180L), 2 mM L-glutamine, 100 units/ml penicillin and 100 mg/mL streptomycin at 37° C. in an atmosphere of 5% CO2/air.” left out
as §4, §5

The test system of data set [8] is Human head and neck squamous carcinoma cell line (HN6). The experiment in a line: Cytotoxicity test / growth inhibition, HN6. The format is cell-based. The settings on record: HN6, 48 hours, cell counting. On the procedure:
as §1, §2, §3

For data set [9], the system named is Human Prostate cell line derived from brain metastasis (DU-145). Briefly: Cytotoxicity test / growth inhibition, DU-145. The format is cell-based. The settings on record: DU-145, 48 hours, cell counting. On the procedure:
as §1, §2
as §5, with “Coulter). Each cell count was performed in three replicates. The values corresponding to the relative survival of cells in presence of each chemical compound at single concentrations were normalized to the untreated controls.” for “Coulter).”

Some results are limits rather than exact numbers.

As usually defined, the IC50 is the concentration that inhibits the measured activity by half. Read a high IC50 as lower potency.

For `CCCCc1cn(-c2ccc(NC(=O)Nc3ccccc3C)cc2)nn1` [Compound 20a, 1-(4-(4-butyl-1H-1,2,3-triazol-1-yl)phenyl)-3-o-tolylurea], the IC50 in [1] was determined as 18.7 µM; in data set [2] it was 0.037 mM; in [3] it was 0.054 mM; in data set [4] it was 149 µM. Also, the Sability % in data set [5] amounted to 99%. Besides, in data set [6], the “PAMPA GI (RM %) membrane retention” value turned out to be 19.1%.
Regarding `CCCCn1nnc(-c2ccc(NC(=O)Nc3ccccc3C)cc2)n1` [Compound 49, 1-(4-(2-butyl-2H-tetrazol-5-yl)phenyl)-3-(o-tolyl)urea], in “Water Solubility Assay” (from aqueous solubility), the LogS was under −8.5. Moreover, in the data set “Water Solubility Assay” (water, room temperature, 24-36 h), the “Aq. Solub.” value is under 0.001 µg/mL. The molecule further showed a Sability % in data set [5] of 95.6%. For the same molecule, the “PAMPA GI (RM %) membrane retention” value in data set [6] was determined as 24.8%.
Regarding `CC(C)CCc1cn(-c2ccc(NC(=O)Nc3cccc4cnccc34)cc2)nn1` [Compound 55f, 1-(4-(4-isopentyl-1H-1,2,3-triazol-1-yl)phenyl)-3-(isoquinolin-5-yl)urea], the IC50 amounted to 32.4 µM in [7], 6.1 µM in data set [8] and 0.6 µM in data set [9].
